The text below walks through data of paper PMC8347148, “An Evaluation of Human Induced Pluripotent Stem Cells to Test for Cardiac Developmental Toxicity” (International Journal of Molecular Sciences, 2021).

Series [1] deals with RIV9 hiPSC-derived cardiomyocytes. The experiment in a line: hiPSC-EST cardiac contractile assay (count of contracting cardiomyocyte clusters). In kind it is cell-based, human. The conditions noted are these: for hiPSC ID50: day 25, 50% inhibition of functional (contracting) cardiomyocytes vs control; for doses with reduced contractile activity / incidence: Figure 3. Here is the method: The hiPSC cell line RIV9 was obtained from the Stem Cell Core at the University of California, Riverside. hiPSCs were seeded on Matrigel (Corning, Glendale, AZ, USA)-coated tissue culture plates and maintained in a pluripotent state in mTeSR® medium (Stem Cell Technologies, Seattle, WA, USA). Cells were cultured under a humidified atmosphere of 5% CO2 at 37 °C and passaged for maintenance or to seed for experiments approximately every 5 days as previously described.
After cells reached 70% confluency (designated day 0), the medium was changed to control differentiation medium supplemented with 0.06 mg/mL ascorbic acid (Sigma-Aldrich, St. Louis, MO, USA) to induce cardiac differentiation. Control differentiation medium was comprised of Dulbecco’s modified Eagle’s medium (DMEM with 4.5 g/L glucose, L-glutamine and sodium pyruvate; Corning) supplemented with 18% FBS (PAA), 0.8% penicillin/streptomycin (10,000 units/10,000 units, Gibco, ThermoFisher Scientific, Grand Island, NY, USA), 0.12% non-essential amino acids (NEAA; Gibco), and 0.1 mM β-mercaptoethanol (Gibco). Cultures were cultured in differentiation media for 25 days, starting from day 0.
5-flurorouracil (5-FU), all-trans retinoic acid (atRA), and penicillin G (PenG) were selected from a subset of chemicals used in the original EST validation study. 5-FU and atRA were selected as positive test compounds due to their established embryotoxic potential while PenG was used as a negative control. All chemicals were purchased from Sigma. Stock solutions were prepared in DMSO and filtered through a 0.2 micron Acrodisc® PSF Syringe Filter (Pall Corporation, Port Washington, NY, USA), aliquoted into sterile microcentrifuge tubes and stored at −20 °C until use. Test chemicals were serially diluted to final concentrations in differentiation media. Cardiogenic cultures were treated with designated chemicals (or solvent only) through day 25 of differentiation and hFF cultures were treated with each compound for a 25 day duration period. Compounds were replenished with each medium change.
A University of Kentucky smoking machine was used to produce smoke extract solutions from commercially available conventional Marlboro Red 100 brand cigarettes as previously described. The smoking machine took a 2.2 s puff of mainstream (MS) smoke every minute. Smoke solution concentrations were made in puff equivalents (PE), which are the number of cigarette puffs dissolved in 1 mL of medium. MS smoke solutions were produced by pulling 30 puffs of MS smoke through 10 mL of DMEM. Resulting 3 PE smoke extracts were filtered through a 0.2 micron Acrodisc® PSF Syringe Filter (Pall Corporation, Port Washington, NY, USA), aliquoted into sterile microcentrifuge tubes, and stored at −80 °C until use. Serial dilutions were performed in differentiation medium to reach desired final exposure concentrations. Cardiogenic cultures were treated with smoke solutions through 25 days of differentiation. Smoke solutions were replenished with each medium change.
A 10% (w/v) Camel Snus extract was prepared as previously described. Ten grams of Snus was added to 85 mL of DMEM and allowed to incubate at 37 °C for 2 h. This initial extract solution was centrifuged for 10 min at 4500× g. Supernatant from the first round of centrifugation was then centrifuged again at 13,000× g for 1 h. The resulting supernatant was collected and pH adjusted to 7.4. 15 mL of FBS was added to the pH-adjusted Snus extract to produce a 10% stock solution of Snus tobacco extract (STE). The stock solution was then sterile-filtered with a 0.22 μm vacuum filter system. STE was aliquoted into sterile microcentrifuge tubes and stored at −80 °C until use. Serial dilutions were performed in differentiation medium to reach desired final exposure concentrations. Cardiogenic cultures were treated with STE through 25 days of differentiation. STE was replenished with each medium change. […]

A further series has as its system mESCs. The arrangement: method as in PMID 14761682, PMID 21720311. To be noted: EST prediction model; cited from earlier work.
For series [2] the following is noted: maximum plasma concentration, human exposure; cited from earlier work.
The subject of another series is MEF2c mRNA expression. In words: day 10 qPCR of MEF2c in differentiating hiPSCs. In kind it is cell-based, human. An excerpt: One of the main critiques of traditional developmental toxicity evaluations is the length of time and technical training required to successfully complete assays. As such, a shorter, quantifiable, and correct in vitro embryotoxicity assessment could improve throughput without sacrificing accuracy. Given the correct predictions achieved with contraction counts described above, we next investigated if our approach could be modified with a shorter, qPCR-based endpoint to determine differentiation inhibition. Here, we selected two cardiogenesis-specific transcription factors, TBX5 and MEF2c, to determine if the adverse differentiation outcomes would already be detectable as changes in TBX5 and MEF2c expression on day 10 of differentiation.
RNA was extracted from three wells per biological replicate using the protocol from NucleoSpin RNA II kit (Macherey-Nagel, Mountain View, CA, USA) and pooled. RNA from three independent differentiations was then quantified using a NanoDrop® 1000 spectrophotometer (ThermoFisher Scientific, Grand Island, NY, USA) at 260 nm. 25 ng of total RNA was used as a template for cDNA synthesis with a mastermix including 5 µL 5× reaction buffer, 1.25 µL 10 mM dNTPs, 1.25 µL 400 U/µL RNase inhibitor, 0.1 µL 200 U/µL reverse transcriptase, 0.1 µL 3 µg/µL random primer, and 1.5 µL DEPC H2O for a total of 25 µL per reaction. 25 ng cDNA transcripts were used for quantitative polymerase chain reaction (qPCR) SYBR green technology on the MyiQ cycler (Bio-Rad). The reactions were setup for 10 min of denaturing at 94 °C (initial), followed by 40 cycles of denaturing at 94 °C, and annealing at 60 °C each 45 s. The n-fold expression in target samples was calculated with the ΔΔCT method by standardizing Ct values to GAPDH expression. Primer sequences for human GAPDH were 5′-[…]-3′ and 5′-[…]-3′. Target genes were cardiogenic markers TBX5 and MEF2c. Primer sequences for human TBX5 were 5′-[…]-3′ and 5′-[…]-3′ and primer sequences for human MEF2c were 5′-[…]-3′ and 5′-[…]-3′ [27].
Half-maximal inhibitory compound doses of differentiation (ID50) and cytotoxicity (IC50) were determined from concentration-response curves using GraphPad Prism.
(In general: Real-time PCR tracks product formation cycle by cycle.)

Each structure is given as a SMILES string.

For `O=c1[nH]cc(F)c(=O)[nH]1` [5-Fluorouracil, 5-fluorouracil], the “concentrations that negatively impacted the formation of contractile structures” value in series [1] (by day 20, Figure 2) is listed as “above 1 × 10^−6 μg/mL”. The “hiPSC ID50” value in series [1] amounted to 0.00229 ng/mL. In addition, in the series on mESCs, the “mESC Biostatistical Embryotoxicity Classification” value is reported as “Strongly embryotoxic”. The Cmax in series [2] was 0.94 [13] μg/mL. Moreover, in the series with MEF2c mRNA expression (day 10), the “effect on MEF2c mRNA expression” value is reported as “No reductions in MEF2c mRNA expression”.

For `CC1(C)S[C@@H]2[C@H](NC(=O)Cc3ccccc3)C(=O)N2[C@H]1C(=O)O` [Penicillin G, penicillin G], in series [1], the “effect on formation of contractile structures” value is on record as “did not inhibit the formation of contractile structures”, the “doses with reduced contractile activity / incidence” value is over 700 µg/mL and the “hiPSC ID50” value was determined as 739900 ng/mL. Also, the “mESC Biostatistical Embryotoxicity Classification” value in the series on mESCs was “Not embryotoxic”. In series [2], the Cmax is 134.6 [12] μg/mL. Moreover, the “effect on MEF2c mRNA expression” value in the series with MEF2c mRNA expression (day 10) is reported as “remained largely unchanged”.

In the case of `CC1=C(/C=C/C(C)=C/C=C/C(C)=C/C(=O)O)C(C)(C)CCC1` [All-Trans Retinoic Acid, all-trans retinoic acid], the “increase in contractile cluster incidence” value in series [1] (1 × 10^−8 μg/mL) is about 2 fold. Moreover, the “concentrations at which cells failed to form contractile clusters” value in series [1] (Figure 2) was “above 1 × 10^−3 μg/mL”. Moreover, in series [1], the “doses with reduced contractile activity / incidence” value was “above 1 × 10^−8 μg/mL” and the “hiPSC ID50” value came to 0.000933 ng/mL. Besides, in the series on mESCs, the “mESC Biostatistical Embryotoxicity Classification” value is given as “Strongly embryotoxic”. Further, the Cmax in series [2] is 0.155–0.294 [13] μg/mL. In the series on MEF2c mRNA expression (day 10), the “doses with steady decline in MEF2c mRNA expression” value is listed as “above 1 × 10^−3 μg/mL” and the “effect on MEF2c mRNA expression” value was “dose-dependently downregulated”. Further, the “MEF2c mRNA ID50” value in the series with MEF2c mRNA expression (day 10 of differentiation) came out at 40 ng/mL.
